Reference: a melting point compilation (Tetko et al.; mined from patent text by program, amines drawn as free bases though some values may be those of a salt)

SMILES	melting point
COC1=CC(Cl)(OC)NC(C(O)CC(=O)Nc2ccccc2)=N1 (configuration not stated)	121 to 123 °C
CCOC(=O)CCCCCCc1ccc2ccccc2c1O	41 to 42 °C
Cc1cccc(NC(=O)NCC(=O)N(CC(=O)OC(C)(C)C)c2cccc(OC(F)(F)F)c2)c1	125 °C
COc1cc2c(c(N)c1OC)C(=O)C(=Cc1cc(C)c(O)c(C)c1)C2	238 to 240 °C
O=C(O)Cc1ccc2ncsc2c1	147 to 149 °C
CCCCCCCCOc1cc2c(cc1/C(C)=C/c1ccc(C(=O)OC)cc1)C(C)(C)CCCS2(=O)=O	79 to 80 °C
CCOc1ncc(C(C)=O)cc1C(=O)Nc1c(C(N)=O)nn(C2CN(C(=O)OC(C)(C)C)C2)c1CC	220 to 223 °C
O=C(Nc1ccc(-c2ccccc2Cl)[nH]c1=O)OCc1ccccc1	213 to 215 °C
Cc1cccc(-n2ncc(-c3ccc(S(C)(=O)=O)cc3)c(-c3ccc(F)cc3)c2=O)c1	213 to 216 °C
C#CCN(c1ccc(C(=O)O)cc1)C1CCc2cc3nc(COC(=O)C(C)(C)C)[nH]c(=O)c3cc21 (racemic)	133 °C
OCCc1ccc2cc(Br)ccc2n1	103 to 104 °C
COC(=O)ON=C(N)c1ccc(C(=O)OC(C)(C)C)cc1	157 to 159 °C
COC=C(C(=O)OC)c1c(OCc2cc(Cl)ccc2Cl)c(C)nn1C	94 to 96 °C
Cc1ccc(CC(=O)CCCC(=O)O)c(C)c1	75 to 76.5 °C
CCOC(=O)N1CCC(c2noc(-c3cc(Cl)c(N)c4c3OCC4)n2)CC1	162 °C
O=C(O)C(CCCCCCCCCCCC(C(=O)O)C1CC1)C1CC1 (configuration not stated)	115 to 118 °C
COc1ccc(Cn2c(N)c(NC(=O)C(C)C)c(=O)[nH]c2=O)cc1OC	207 to 210 °C
CCn1c(=O)oc(=O)c2ccccc21	110 to 112 °C
O=c1n(CC(F)(F)F)c2ccccc2n1C1CCN(CCCCN2Cc3cc(Cl)ccc3S2(=O)=O)CC1	237 to 239 °C
CCOC(=O)c1c(=O)c2c(F)c(F)c(F)c(F)c2n2ccccc12	198 to 200 °C
CCCOc1cc(OC)cc(O)c1C(=O)C=Cc1ccc(OC)cc1	117 °C
CCOC(=O)C=C(C)NC(=O)OCc1ccc(Cl)c(Cl)c1	83.5 to 85 °C
O=C(NCc1ccc(Cl)cc1)c1cnc2ccc(I)cn2c1=O	191 to 194 °C
CCOC(=O)C1CCN(c2nc(COc3ccc(COc4nn(-c5ccccc5)cc4C=O)cc3OC)c(C)s2)CC1	126 to 127 °C

SMILES	melting point
CC(CCOc1cccc(=O)n1O)CC(C)(C)C (configuration not stated)	130 to 131 °C
CC(C)Oc1ccc2c(c1O)OC(C)(C)CC2=O	114 to 116 °C
O=C(C=NO)c1cccc(Cl)c1Cl	109 °C
CN1CCN(CC(=O)Nc2cccc3c2C(=O)c2c-3n[nH]c2-c2ccc(N(C)C)cc2)CC1	> 300 °C
Cc1nn(C)c2[nH]c(=O)c3c(c12)CCCC3	> 300 °C
Cc1ccccc1CNC(=O)c1ccc2cnccc2n1	120 to 121 °C
O=C1N[C@@H](Cc2ccccc2)C(c2ccccc2)(c2ccccc2)O1	259 to 261 °C
CN1C(=O)CC[C@]2(C)c3ccc(Sc4nc(-c5ccccc5)cc5ccccc45)cc3CC[C@@H]12	183 to 189 °C
CC(C)(C)NC(=O)C(NC(C)(C)C)=C1CCCC1	80 to 83 °C
CCCC(=O)c1cnc2c(OC)nccc2c1Nc1ccccc1C	144 °C
CC(C)(C)OC(=O)N1CCN(C2CCN(c3ccc(N)cc3C#N)CC2)CC1	172 °C
CCOC(=O)Cc1c(C(=O)O)c(C)c(C(=O)c2ccc(Cl)cc2)n1C	197 to 198 °C
CCn1cncc1/C=C/c1cn(-c2ccccc2)nc1OCc1ccc(OCc2nc(-c3ccco3)oc2C)c(OC)c1	130 to 132 °C
CCC(CC(=O)OC)Sc1c(C(N)=O)sc2ccc(OC)cc12 (configuration not stated)	134 to 136 °C
CCOC(=O)C(O)CCn1cnc2c(=O)[nH]c(N)nc21 (configuration not stated)	161 to 163 °C
O=C1C2=C(CCCC2)C(=O)N1c1ccc(Br)cc1F	102 °C
c1cncc(Nc2ncc(-c3ccncn3)c(-c3ccco3)n2)c1	174 °C
Cc1sc(C)c2c(=O)n3cc(C(N)=O)ccc3nc12	272 to 275 °C
OCc1csc(N2CCCC2)n1	146 to 148 °C
Cc1[nH]cc2c(=O)n(-c3ccc(Cl)cc3)nc-2c1-c1ccc(N2CCOCC2)cc1	306 to 315 °C
NS(=O)(=O)Cc1cccc(NC(=O)c2cnn3c(C(F)F)cc(-c4ccc(C(F)(F)F)cc4)nc23)c1	280 °C
NC(=O)c1ccc(C(F)(F)F)cc1-c1cnccc1Oc1cccc(CCC(=O)N2CCN(Cc3ccc4c(c3)OCO4)CC2)c1	140 to 141 °C
CC1(C)COC(c2ccc(F)cc2-c2ccc3c(c2)CCC(Cc2ccccc2)C3=O)=N1 (configuration not stated)	114 to 115 °C
COc1ccc(N2CCN(C)CC2)c2c1CC[C@H](NC(=O)c1ccc(N3CCOCC3)cc1)C2	229 to 232 °C

SMILES	melting point
O=C(O)c1cc(-c2ccccc2)c2ccsc2c1	222 °C
OCC1(CO)COC2(CCCCC2)N1	117 to 119 °C
CC(Oc1ccnc2ccccc12)C(=O)Nc1ccc(Cl)cc1 (configuration not stated)	170 to 172 °C
OC1CSC(Oc2cc(-c3cccnc3)ccc2F)C(O)C1O (configuration not stated)	100 °C
O=C(O)C(OCCC1CCN(c2ccncc2)CC1)Oc1ccccc1 (configuration not stated)	247 to 249 °C
CS(=O)(=O)c1ccc(-c2cc(CCCO[N+](=O)[O-])nn2C2CCCCC2)cc1	77 °C
O=C(O)Cc1cccc2c(=O)cc(-c3c(F)cccc3F)oc12	178 to 180 °C
CC1(C)OCc2cc(Cc3c[nH]cn3)ccc2O1	150 to 170 °C
CC1(C)CON(Cc2ccc(N3C(=O)c4ccccc4C3=O)cc2Br)C1=O	158 to 159 °C
CC(C)[C@H](NC(=O)OCc1ccccc1)C(=O)N[C@@H](Cc1ccccc1)C(=O)C[C@@H]1CCCC[C@H]1C(=O)NC(C)(C)C	186 to 188 °C
COc1ccc(NN=C(Sc2ccccc2)C(C)=O)cc1	120 to 123 °C
O=C(Nc1ccc(F)cc1)NN1CCN(C(=O)Cn2c(=O)sc3ccc(Cl)cc32)CC1	> 250 °C
CC(=O)c1ccc(OCCCOc2cc(NC(=O)C(=O)O)c(C)cc2Br)c(CCC(F)(F)F)c1O	133 to 135 °C
O=C(O)C(Cc1ccccc1)Nc1cc(-c2ccc(OCc3ccccc3)nc2)ncn1 (configuration not stated)	130 to 133 °C
O=C(C=Cc1ccc2c(c1)OCO2)N1CCc2c([nH]c3ccccc23)C1c1ccc2c(c1)OCO2 (configuration not stated)	233 °C
CC(C)(C)OC(=O)NCCNC(=O)c1cnc(S)n1Cc1cc(F)cc(F)c1	178 to 179 °C
CSc1sc(-c2ccncc2)c2c1C(=O)CCC2	115 to 116 °C
COC(=O)c1c(C)c(OC)cc(O[Si](C)(C)C(C)(C)C(C)C)c1C=O	69 to 70 °C
Cc1c(=O)[nH]c(=O)n2ccsc12	> 230 °C
Cc1ccc(-c2nc(Cl)cc(N3CCN(C)CC3)n2)cc1	93 to 95 °C
COC(=O)C(C)Oc1ccc(NC(=O)OCCO)cc1 (configuration not stated)	90.5 to 92.8 °C
COc1ccc(S(=O)(=O)Nc2cccnc2Nc2ccc(O)cc2)cc1	178 to 179 °C
Cn1nccc1COC(=O)Cc1ccccc1	80 to 83 °C
CCCCSc1nc(N(C)C(C)=O)c(C#N)s1	40 °C
